Read-outs that look alike come from different tables or passages of the source.
Key:
[1] = system: C. pipiens Slab strain larvae; assay: Larval bioassay, Slab strain (OP-susceptible); conditions: for Mortality at 300 µM, Slab: fourth-instar larvae, 24 hours exposure; for mortality at 300 µM: Culex pipiens, 24 h, read-out: Mortality at 300 µM, Slab
Description: Three C. pipiens strains were used: the susceptible reference Slab strain, homozygous for ace-1 ^S [39], the resistant reference SR strain, carrying the genetical background of Slab but homozygous for the G119S mutation, allele ace-1 ^R [21] and the Ducos strain, carrying the genetical background of Slab but homozygous for an ace-1 duplication, with one ace-1^S and ace-1^R copy in tandem. Culex pipiens heterozygous larvae (Slab×SR) were obtained by crossing Slab males and SR females. Two A. gambiae reference strains (S molecular form) were used: the susceptible strain Kisumu, homozygous for ace-1 ^S, collected in Kenya in 1953 and maintained since then under laboratory conditions and the resistant Acerkis strain, carrying the genetical background of Kisumu but homozygous for an ace-1^R allele from a population collected in Bobo-Dioulasso, Burkina Faso [41].
Insecticidal activity was determined by performing bioassays on fourth-instar larvae as described in [42]. Each compound was dissolved in ethanol. Propoxur (CX) and chlorpyrifos (OP) were used as references. For each compound, we first tested mortality after a 24-hour exposure at 300 µM. […] Mortality data were analyzed by the log-probit program. This program takes into account natural mortality and provides lethal doses (LD) and slopes for each mortality line; it also computes resistance ratios (RR) for each LD, with 95% confidence intervals.

[2] = system: C. pipiens SR strain larvae; assay: Larval bioassay, SR strain (OP-resistant); conditions: for Mortality at 300 µM, SR: fourth-instar larvae, 24 hours exposure; for mortality at 300 µM: Culex pipiens, 24 h, read-out: Mortality at 300 µM, SR
Description: Three C. pipiens strains were used: the susceptible reference Slab strain, homozygous for ace-1 ^S [39], the resistant reference SR strain, carrying the genetical background of Slab but homozygous for the G119S mutation, allele ace-1 ^R [21] and the Ducos strain, carrying the genetical background of Slab but homozygous for an ace-1 duplication, with one ace-1^S and ace-1^R copy in tandem. Culex pipiens heterozygous larvae (Slab×SR) were obtained by crossing Slab males and SR females.
Insecticidal activity was determined by performing bioassays on fourth-instar larvae as described in [42]. Each compound was dissolved in ethanol. Propoxur (CX) and chlorpyrifos (OP) were used as references. For each compound, we first tested mortality after a 24-hour exposure at 300 µM. […] Mortality data were analyzed by the log-probit program.

WT AChE1 = WT AChE1 (Culex pipiens, UniProt Q86GC8); assay: AChE assay (Ellman), dose-response on recombinant WT AChE1; type: biochemical; parameters: made in house; host or cells: Drosophila S2 cells
Description: (§1) Production of C. pipiens WT and mutated AChE1s in Drosophila S2 cells was already described. The chemical library (ChemBridge, 3,000 compounds) screening was performed in duplicate on G119S recombinant AChE1. Chemicals were made soluble in ethanol or dimethylsulphoxide (DMSO), and then diluted at 300 µM in ethanol for storage. Compounds (30 µM final concentration) were incubated for 15 min at room temperature with 100 µl of G119S recombinant AChE1 then 100 µl of substrate (acetylthiocholine, 1.6 mM, Sigma-Aldrich) was added and the residual activity was quantified by measuring the optical density at 412 nm, as described by Ellman et al.. PTF analogs were analyzed in dose-response experiments (10-fold serial dilutions from 3 mM to 30 nM), using recombinant WT and G119S AChE1 or mosquito head extracts (heads cut from frozen mosquitoes, homogenized in 400 µl PB containing 1% Triton X-100 and cleared by centrifugation at 9,000×g for 3 min). Depending on compound availability, two to five replicates were performed with distinct batches of enzyme. […] IC50 was estimated by nonlinear least square regression. IC50 was also measured on AChE1 from susceptible and resistant mosquito larvae extracts.

G119S AChE1 = target: T1, G119S AChE1 (Culex pipiens, UniProt Q86GC8, G247S); assay: biochemical; type: biochemical
T1 construct: made in house; host or cells: Drosophila S2 cells
Description: as §1, with “Compounds (30 µM final concentration) were incubated for 15 min at room temperature with 100 µl of G119S recombinant AChE1 then 100 µl of substrate (acetylthiocholine, 1.6 mM, Sigma-Aldrich) was added and the residual activity was quantified by measuring the optical density at 412 nm, as described by Ellman et al..” left out

[3] = recombinant wild-type C. pipiens AChE1, 15 min incubation, acetylthiocholine, read-out: IC50 WT
[4] = recombinant OP-insensitive G119S C. pipiens AChE1, 15 min incubation, acetylthiocholine, read-out: IC50 G119S

| SMILES | Mortality at 300 µM, Slab [1] | Mortality at 300 µM, SR [2] | mortality at 300 µM [1] | mortality at 300 µM [2] | IC50 (WT AChE1) | IC50 (G119S AChE1) | IC50 (WT AChE1; [3]) | IC50 (G119S AChE1; [4]) | inhibition in primary screen (hydrolysis of acetylthiocholine) (G119S AChE1; 30 µM final concentration, duplicate, G119S recombinant AChE1) |
| --- | --- | --- | --- | --- | --- | --- | --- | --- | --- |
| CCOP(=O)(OCC)Oc1nc(Cl)c(Cl)cc1Cl [Chlorpyrifos-oxon, reference compound] | 100% | 100% | – | – | – | – | – | – | – |
| COP(=O)(OC)OC=C(Cl)Cl [Dichlorvos, reference compound] | – | – | 100% | 100% | 0.45 µM | 2 µM | – | – | – |
| C=CCN1C(=O)NC(=O)C(=Cc2ccc(C)o2)C1=O [PTF-1] | 0% | 0% | – | – | – | – | 3 µM | 2.2 µM | – |
| Cc1ccc(C=C2C(=O)NC(=O)N(C3CCCCC3)C2=O)o1 [PTF-2] | 12% | 53% | – | – | – | – | 12.6 µM | 5.5 µM | – |
| Cc1ccc(N2C(=O)NC(=O)C(=Cc3ccc(C)o3)C2=O)cc1 [PTF-4] | 78% | 100% | – | – | – | – | 111 µM | 14 µM | – |
| Cc1ccc(C=C2C(=O)NC(=O)N(c3ccccc3C)C2=O)o1 [PTF-5] | 0% | 0% | – | – | – | – | 1.4 µM | 1.1 µM | – |
| Cc1cccc(N2C(=O)NC(=O)C(=Cc3ccc(C)o3)C2=O)c1 [PTF-6] | 0% | 0% | – | – | – | – | 4 µM | 4.4 µM | – |
| Cc1ccc(C=C2C(=O)NC(=O)N(c3ccc(C)c(C)c3)C2=O)o1 [PTF-7] | 100% | 100% | – | – | – | – | 424 µM | 35 µM | – |
| CCc1ccc(N2C(=O)NC(=O)C(=Cc3ccc(C)o3)C2=O)cc1 [PTF-8] | 60% | 100% | – | – | – | – | 312 µM | 19 µM | – |
| Cc1ccc(C=C2C(=O)NC(=O)N(c3ccc(C(C)C)cc3)C2=O)o1 [PTF-9] | 19% | 39% | – | – | – | – | 132 µM | 21.5 µM | – |
| COc1ccccc1N1C(=O)NC(=O)C(=Cc2ccc(C)o2)C1=O [PTF-11] | 0% | 0% | – | – | – | – | 1.3 µM | 1 µM | – |
| COc1cccc(N2C(=O)NC(=O)C(=Cc3ccc(C)o3)C2=O)c1 [PTF-12] | 46% | 88% | – | – | – | – | 54 µM | 6 µM | – |
| CCOc1ccc(N2C(=O)NC(=O)C(=Cc3ccc(C)o3)C2=O)cc1 [PTF-13] | 64% | 96% | – | – | – | – | 236 µM | 89 µM | – |
| COc1ccc(OC)c(N2C(=O)NC(=O)C(=Cc3ccc(C)o3)C2=O)c1 [PTF-14] | 0% | 0% | – | – | – | – | 2 µM | 2 µM | – |
| Cc1ccc(C=C2C(=O)NC(=O)N(c3ccc(C(=O)O)cc3)C2=O)o1 [PTF-15] | 0% | 0% | – | – | – | – | 9 µM | 12.9 µM | – |
| Cc1ccc(C=C2C(=O)NC(=O)N(Cc3ccco3)C2=O)o1 [PTF-16] | 80% | 100% | – | – | – | – | 260 µM | 37 µM | – |
| Cc1ccc(C=C2C(=O)NC(=O)N(c3ccc(F)cc3)C2=O)o1 [PTF-17] | 15% | 90% | – | – | – | – | 5 µM | 8 µM | – |
| Cc1ccc(C=C2C(=O)NC(=O)N(c3ccccc3F)C2=O)o1 [PTF-18] | 0% | 0% | – | – | – | – | 5.3 µM | 1.8 µM | – |

| SMILES | Mortality at 300 µM, Slab [1] | Mortality at 300 µM, SR [2] | mortality at 300 µM [1] | mortality at 300 µM [2] | IC50 (WT AChE1) | IC50 (G119S AChE1) | IC50 (WT AChE1; [3]) | IC50 (G119S AChE1; [4]) | inhibition in primary screen (hydrolysis of acetylthiocholine) (G119S AChE1; 30 µM final concentration, duplicate, G119S recombinant AChE1) |
| --- | --- | --- | --- | --- | --- | --- | --- | --- | --- |
| Cc1ccc(C=C2C(=O)NC(=O)N(CCc3ccc(F)cc3)C2=O)o1 [PTF-19] | 0% | 0% | – | – | – | – | 3.3 µM | 3.7 µM | – |
| Cc1ccc(C=C2C(=O)NC(=O)N(c3cccc(Cl)c3Cl)C2=O)o1 [PTF-21] | 0% | 0% | – | – | – | – | 5 µM | 4.8 µM | – |
| Cc1ccc(C=C2C(=O)NC(=O)N(c3cccc(Br)c3)C2=O)o1 [PTF-22] | 68% | 97% | – | – | – | – | 1.5 µM | 1.9 µM | – |
| CCCCN1C(=O)C(=Cc2ccc(C)o2)C(=O)NC1=S [PTF-23] | 24% | 60% | – | – | – | – | 12.1 µM | 15.5 µM | – |
| Cc1ccc(N2C(=O)C(=Cc3ccc(C)o3)C(=O)NC2=S)cc1 [PTF-24] | 0% | 0% | – | – | – | – | 1.3 µM | 1.9 µM | 80–87% |
| CCc1ccc(N2C(=O)C(=Cc3ccc(C)o3)C(=O)NC2=S)cc1 [PTF-26] | 100% | 65% | – | – | – | – | 9 µM | 16 µM | – |
| COc1ccc(N2C(=O)C(=Cc3ccc(C)o3)C(=O)NC2=S)cc1 [PTF-27] | 12% | 15% | – | – | – | – | 1.7 µM | 5.9 µM | – |
| COc1ccccc1N1C(=O)C(=Cc2ccc(C)o2)C(=O)NC1=S [PTF-28] | 0% | 0% | – | – | – | – | 2.1 µM | 1.8 µM | – |
| COc1ccc(N2C(=O)C(=Cc3ccc(C)o3)C(=O)NC2=S)c(OC)c1 [PTF-30] | 25% | 25% | – | – | – | – | 2.8 µM | 1.3 µM | – |
| Cc1ccc(C=C2C(=O)NC(=S)N(c3ccc(C(=O)O)cc3)C2=O)o1 [PTF-31] | 20% | 20% | – | – | – | – | 0.5 µM | 0.2 µM | – |
| Cc1ccc(C=C2C(=O)NC(=S)N(CC3CCCO3)C2=O)o1 (stereo not drawn) [PTF-32] | 0% | 0% | – | – | – | – | 2.1 µM | 2.3 µM | – |
| Cc1ccc(C=C2C(=O)NC(=S)N(c3ccc(F)cc3)C2=O)o1 [PTF-33] | 16% | 77% | – | – | – | – | 490 µM | 22 µM | – |
| Cc1ccc(C=C2C(=O)NC(=S)N(CCc3ccc(F)cc3)C2=O)o1 [PTF-34] | 0% | 0% | – | – | – | – | 24 µM | 38 µM | – |
| Cc1ccc(C=C2C(=O)NC(=S)N(c3ccc(Cl)cc3)C2=O)o1 [PTF-35] | 5% | 49% | – | – | – | – | 8.7 µM | 8.7 µM | – |
| Cc1ccc(C=C2C(=O)NC(=S)N(c3cccc(Cl)c3)C2=O)o1 [PTF-36] | 30% | 40% | – | – | – | – | 11.8 µM | 8 µM | – |
| CCOP(=O)(OCC)Oc1ccc([N+](=O)[O-])cc1 [Paraoxon, reference compound] | 100% | 100% | – | – | – | – | – | – | – |
| Nc1c2c(nc3ccccc13)CCCC2 [Tacrine, reference compound] | – | – | 85% | 95% | – | – | – | – | – |

Reference: PMC3466212, “Novel AChE Inhibitors for Sustainable Insecticide Resistance Management” (PLoS ONE, 2012)
